Drawing on ChEMBL document CHEMBL1134025, “Thiosugars. Part 9: synthesis and biological evaluation of some 4'-thio-L-arabino nucleoside analogues” (2001), this text covers MIC and Cytotoxicity for 10 compounds.

The subject of test [1] is Human alphaherpesvirus 1. Kind of test: Minimum inhibitory concentration required to reduce HSV-1 induced cytopathogenicity by 50%. Type of test: functional.
For test [2], the system named is Human alphaherpesvirus 2. Description: Minimum inhibitory concentration required to reduce HSV-2 induced cytopathogenicity by 50%. Type of test: functional. (Protection from cytopathic effect is a common read-out in antiviral testing.)
Test [3] concerns Human alphaherpesvirus 3. Description: Minimum inhibitory concentration required to reduce VZV induced cytopathogenicity by 50%. Type of test: functional.
Test [4] deals with Respiratory syncytial virus. Description: Minimum inhibitory concentration required to reduce Respiratory syncytial virus induced cytopathogenicity by 50%. In kind it is functional. The settings on record: human respiratory syncytial virus.
Test [5] relates to Human betaherpesvirus 5. Kind of test: Minimum inhibitory concentration required to reduce HCMV induced cytopathogenicity by 50%. In kind it is functional.
Test [6] deals with Coxsackievirus B4. Kind of test: Minimum inhibitory concentration required to reduce Coxsackie B4 virus induced cytopathogenicity by 50%. Type of test: functional. The settings on record: Enterovirus B.
Test [7] concerns Vesicular stomatitis virus. Kind of test: Minimum inhibitory concentration required to reduce Vesicular stomatitis virus induced cytopathogenicity by 50%. In kind it is functional.
Test [8] has as its system Mammalian orthoreovirus 1. Description: Minimum inhibitory concentration required to reduce Reo virus-1 induced cytopathogenicity by 50%. Type of test: functional, reo virus type 1.
Test [9] concerns Punta Toro virus. Kind of test: Minimum inhibitory concentration required to reduce Punta Toro virus induced cytopathogenicity by 50%. In kind it is functional.
The test system of test [10] is Sindbis virus. Kind of test: Minimum inhibitory concentration required to reduce Sindbis virus induced cytopathogenicity by 50%. In kind it is functional.
Test [11] relates to Human immunodeficiency virus 1. Kind of test: Minimum inhibitory concentration required to reduce HIV-1 induced cytopathogenicity by 50%. In kind it is functional.
The test system of test [12] is Human immunodeficiency virus 2. Description: Minimum inhibitory concentration required to reduce HIV-2 induced cytopathogenicity by 50%. In kind it is functional.
The test system of test [13] is Human respirovirus 3. Description: Minimum inhibitory concentration required to reduce Parainfluenza-3 virus induced cytopathogenicity by 50%. Type of test: functional.
For test [14], the system named is Vesicular stomatitis virus.
Test [15] relates to Human betaherpesvirus 5. Description: Cytotoxicity was evaluated against HCMV at 200-400 uM; IA=inactive. In kind it is functional, organism-based.
The subject of test [16] is Punta Toro virus. Description: Cytotoxicity was evaluated against Punta Toro virus at 200-400 uM; IA=inactive. In kind it is functional, organism-based.
The test system of test [17] is Sindbis virus. Description: Cytotoxicity was evaluated against Sindbis virus at 200-400 uM; IA=inactive. Type of test: functional, organism-based.
For test [18], the system named is Coxsackievirus B4. Description: Cytotoxicity was evaluated against Coxsackie B4 virus at 200-400 uM; IA=inactive. Type of test: functional, organism-based.
The subject of test [19] is Respiratory syncytial virus. Description: Cytotoxicity was evaluated against Respiratory syncytial virus at 200-400 uM; IA=inactive. In kind it is functional, organism-based.
In test [20] the test system is Human alphaherpesvirus 2. Description: Cytotoxicity was evaluated against HSV-2 at 200-400 uM; IA=inactive. Type of test: functional, organism-based.
Test [21] relates to Human respirovirus 3. Description: Cytotoxicity was evaluated against Parainfluenza-3 virus at 200-400 uM; IA=inactive. Type of test: functional, organism-based.
Test [22] deals with Human immunodeficiency virus 2. Description: Cytotoxicity was evaluated against HIV-2 at 200-400 uM; IA=inactive. Type of test: functional, organism-based.
Test [23] deals with Human immunodeficiency virus 1. Description: Cytotoxicity was evaluated against HIV-1 at 200-400 uM; IA=inactive. Type of test: functional, organism-based.
Test [24] concerns Human alphaherpesvirus 3. Kind of test: Cytotoxicity was evaluated against VZV at 200-400 uM; IA=inactive. In kind it is functional, organism-based.
Test [25] deals with Mammalian orthoreovirus 1. Kind of test: Cytotoxicity was evaluated against Reo virus-1 at 200-400 uM; IA=inactive. In kind it is functional, organism-based. The following applies: reo virus type 1.
For test [26], the system named is Human alphaherpesvirus 1. Description: Cytotoxicity was evaluated against HSV-1 at 200-400 uM; IA=inactive. Type of test: functional, organism-based.
In another test the test system is Vaccinia virus. The following applies: Orthopoxvirus vaccinia.

≈ marks a conversion by molar mass, not a printed value. Calls of active or inactive are those of the source. No cut-off for these calls is given here.

For the compound `Nc1ncnc2c1ncn2[C@@H]1S[C@@H](CO)[C@H](O)[C@H]1O`, the MIC (against Human alphaherpesvirus 1 [1]; with Human alphaherpesvirus 2 [2]; with Human alphaherpesvirus 3 [3]; in [4]; with Human betaherpesvirus 5 [5]; in the test with Coxsackievirus B4 [6]) was 400 µg/mL (≈ 1410 µM) each time. In addition, the MIC (in test [7]; in [8]; with Punta Toro virus [9]; with Sindbis virus [10]; in test [11]; in [12]) was 400 µg/mL (≈ 1410 µM) throughout. Also, the MIC in the test with Human respirovirus 3 [13] stood at 400 µg/mL (≈ 1410 µM).
In the case of `O=c1nc(-n2cncn2)ccn1C1S[C@@H](COCc2ccccc2)[C@H](OCc2ccccc2)[C@H]1OCc1ccccc1` (stereo partly drawn), the Cytotoxicity entry (in test [14]; with Human betaherpesvirus 5 [15]; in the test on Punta Toro virus [16]; with Sindbis virus [17]; in the test with Coxsackievirus B4 [18]; in test [19]) was “inactive” throughout. For the same compound, the Cytotoxicity entry (in the test on Human alphaherpesvirus 2 [20]; with Human respirovirus 3 [21]; in test [22]; in [23]; in the test with Human alphaherpesvirus 3 [24]; in test [25]) was “inactive” each time. Besides, the Cytotoxicity entry in the test with Human alphaherpesvirus 1 [26] and with Vaccinia virus was “inactive” in each case.
Turning to `O=c1[nH]c(=O)n(C2S[C@@H](CO)[C@H](O)[C@H]2O)cc1Br` (stereo partly drawn), the Cytotoxicity entry (in test [14]; in the test on Human betaherpesvirus 5 [15]; with Punta Toro virus [16]; in the test on Sindbis virus [17]; with Coxsackievirus B4 [18]; in test [19]) was “inactive” each time. For the same compound, the Cytotoxicity result (in the test on Human alphaherpesvirus 2 [20]; with Human respirovirus 3 [21]; in [22]; in test [23]; in the test on Human alphaherpesvirus 3 [24]; in test [25]) was “inactive” throughout. Further, the Cytotoxicity result in the test with Human alphaherpesvirus 1 [26] and with Vaccinia virus was “inactive” in each case.
On to `O=c1ccn([C@@H]2S[C@@H](CO)[C@H](O)[C@H]2O)c(=O)[nH]1`, for which the MIC (with Human alphaherpesvirus 1 [1]; with Human alphaherpesvirus 2 [2]; with Human alphaherpesvirus 3 [3]; in [4]; in the test on Human betaherpesvirus 5 [5]; against Coxsackievirus B4 [6]) was 400 µg/mL (≈ 1540 µM) in each case. Besides, the MIC (in [7]; in test [8]; in the test on Punta Toro virus [9]; against Sindbis virus [10]; in test [11]; in test [12]) was 400 µg/mL (≈ 1540 µM) throughout. The MIC in the test on Human respirovirus 3 [13] is 400 µg/mL (≈ 1540 µM).
For the compound `Nc1ncnc2c1ncn2C1S[C@@H](COCc2ccccc2)[C@H](OCc2ccccc2)[C@H]1OCc1ccccc1` (stereo partly drawn), the Cytotoxicity entry (in test [14]; in the test with Human betaherpesvirus 5 [15]; in the test on Punta Toro virus [16]; in the test on Sindbis virus [17]; in the test on Coxsackievirus B4 [18]; in [19]) was “inactive” in each case. Moreover, the Cytotoxicity entry (in the test with Human alphaherpesvirus 2 [20]; with Human respirovirus 3 [21]; in test [22]; in test [23]; in the test with Human alphaherpesvirus 3 [24]; in [25]) was “inactive” throughout. In addition, the Cytotoxicity result in the test with Human alphaherpesvirus 1 [26] and with Vaccinia virus was “inactive” throughout.
Turning to `CC(=O)OC1S[C@@H](COCc2ccccc2)[C@H](OCc2ccccc2)[C@H]1OCc1ccccc1` (stereo partly drawn), the Cytotoxicity result (in test [14]; in the test on Human betaherpesvirus 5 [15]; with Punta Toro virus [16]; with Sindbis virus [17]; in the test with Coxsackievirus B4 [18]; in [19]) was “inactive” in each case. Further, the Cytotoxicity entry (in the test with Human alphaherpesvirus 2 [20]; with Human respirovirus 3 [21]; in [22]; in [23]; in the test on Human alphaherpesvirus 3 [24]; in [25]) was “inactive” each time. Moreover, the Cytotoxicity entry with Human alphaherpesvirus 1 [26] and with Vaccinia virus was “inactive” each time.
Consider `O=c1[nH]c(=O)n(C2S[C@@H](CO)[C@H](O)[C@H]2O)cc1F` (stereo partly drawn), for which the Cytotoxicity result (in test [14]; with Human betaherpesvirus 5 [15]; in the test on Punta Toro virus [16]; with Sindbis virus [17]; in the test on Coxsackievirus B4 [18]; in test [19]) was “inactive” throughout. Further, the Cytotoxicity result (with Human alphaherpesvirus 2 [20]; with Human respirovirus 3 [21]; in test [22]; in test [23]; in the test with Human alphaherpesvirus 3 [24]; in [25]) was “inactive” in each case. The Cytotoxicity result in the test on Human alphaherpesvirus 1 [26] and in the test with Vaccinia virus was “inactive” each time.
As for `Nc1ccn(C2S[C@@H](COCc3ccccc3)[C@H](OCc3ccccc3)[C@H]2OCc2ccccc2)c(=O)n1` (stereo partly drawn), the Cytotoxicity result (in test [14]; in the test with Human betaherpesvirus 5 [15]; in the test with Punta Toro virus [16]; in the test with Sindbis virus [17]; in the test on Coxsackievirus B4 [18]; in test [19]) was “inactive” throughout. For the same compound, the Cytotoxicity entry (in the test with Human alphaherpesvirus 2 [20]; with Human respirovirus 3 [21]; in [22]; in test [23]; in the test with Human alphaherpesvirus 3 [24]; in test [25]) was “inactive” throughout. Moreover, the Cytotoxicity entry in the test with Human alphaherpesvirus 1 [26] and in the test on Vaccinia virus was “inactive” in each case.
Regarding `O=c1[nH]c(=O)n(C2S[C@@H](CO)[C@H](O)[C@H]2O)cc1Cl` (stereo partly drawn), the Cytotoxicity entry (in test [14]; in the test on Human betaherpesvirus 5 [15]; with Punta Toro virus [16]; in the test with Sindbis virus [17]; in the test with Coxsackievirus B4 [18]; in test [19]) was “inactive” throughout. Besides, the Cytotoxicity result (in the test on Human alphaherpesvirus 2 [20]; in the test with Human respirovirus 3 [21]; in test [22]; in [23]; in the test with Human alphaherpesvirus 3 [24]; in test [25]) was “inactive” in each case. The Cytotoxicity result in the test with Human alphaherpesvirus 1 [26] and in the test on Vaccinia virus was “inactive” each time.
For the compound `C[C@@]1(n2ccc(N)nc2=O)CS[C@H](CO)O1`, the Cytotoxicity entry (in [14]; with Human betaherpesvirus 5 [15]; in the test on Punta Toro virus [16]; in the test with Sindbis virus [17]; in the test on Coxsackievirus B4 [18]; in [19]) was “inactive” throughout. For the same compound, the Cytotoxicity result (in the test on Human alphaherpesvirus 2 [20]; with Human respirovirus 3 [21]; in test [22]; in test [23]; in the test on Human alphaherpesvirus 3 [24]; in test [25]) was “inactive” each time. Moreover, the Cytotoxicity result with Human alphaherpesvirus 1 [26] and with Vaccinia virus was “inactive” in each case.
